Values after ≈ are worked out from the molar mass of the structure shown.
Assays:
E. coli ATCC25922 strain = test: MIC 50, broth micro-dilution, wild-type Escherichia coli; type: cell-based; settings: Escherichia coli, ATCC25922, 18 h, MH2, 18 h
From the text: (§1) 3.1 Against E. coli Strains
(§2) Tested reference compounds. Amikacin sulfate (Cat. No. 01693, Chem-Impex), Gentamicin sulfate (Cat. No. G4918, Sigma Aldrich).
(§3) Microbial strains. E. coli ATCC 25922, E. coli ATCC 25922/pET-9b(+), E. coli ATCC 25922/pAT21-1, E. coli ATCC 25922/pBluescript::AAC(6′)-Ie/APH(2″)-Ia, E. coli ATCC 25922/pBlue_lpp_aacC3_rrnC, E. coli ATCC 25922/pSET152.
(§4) Culture media and equipment. BBL™ Mueller Hinton Broth 2 (Lot. BCBW1143, Cat. No. 70192, Sigma); Kanamycin A (Cat. No. A1493, AppliChem); 96-well deep well plate, 1 mL (Cat. No. 0030506.200, Eppendorf); Plate lids (Cat. No. 0030131.525, Eppendorf); 96-well plate, F-bottom (Cat. No. 781602, Brand; Incubator, Infors Multitron Pro); Laminar flow (Heraeus KS12); UV/VIS meter (Eppendorf BioPhotometer Plus); Platereader (Tecan Sunrise).
(§5) Compound preparation. Compounds were prepared in MH2 media at a concentration of 5 mM and stored at 4° C. For testing, solutions of 128 μM were prepared in MH2. Out of these working solutions, 400 μL was transferred to wells in the first column of 96-well deep well plates. Each compound was transferred in triplicate. Plates were previously filled with 200 μL of MH2 media in all wells except for the wells in the first column. After compound and antibiotic addition, the compounds were serial two-fold diluted by transferring 200 μL from the first to the second column, then from the second to the third column and so on. Finally, 200 μL was removed from the last column.
(§6) Inoculum preparation. Microorganisms used were all revived from 20% glycerol (40% v/v glycerol in water was diluted with MH2) storage at −80° C. by inoculating them in 5 mL MH2. inoculums of E. coli containing a plasmid were selected for by adding 50 μg/mL KanaA. The Inoculums were grown to an optical density (measured by UV/Vis spectroscopy) of 0.6-0.8 at 600 nm. Out of these suspensions, actual inoculums were prepared by diluting them to an optical density (OD) of 0.1 in MH2 media. From these inoculums, 200 μL was transferred to each well, resulting in a final compound concentration range of 64 μM-31.3 nM. All plates were incubated at 900 rpm and 70% rH for 18 h at 37° C.
MIC determination. After 18 h of growth, 200 μL was transferred to a 96-well F-bottom plate. The optical density was determined by a plate reader at 600 nm, with 10 s shaking before reading. Triplicate measurements were averaged, and a growth curve was plotted in Microsoft Excel. The first column in which the growth reached half the value of maximum growth was determined as the MIC50 value for that particular compound.
MIC50. The MIC50 of a compound was assigned at which the bacterial growth reached half the value of maximum growth.

E. coli (APH(3′)IIIa) = test: MIC 50, broth micro-dilution, E. coli expressing APH(3′)IIIa; type: cell-based, Escherichia coli; settings: Escherichia coli, ATCC25922, ATCC25922 harboring plasmid encoding APH(3′)IIIa
Method: (§7) Plasmid transformation. Approximately 500 ng of the pET-9b(+) (Cat. No. 69432-3, Merck), pAT21-1 (provided by Prof. Dr. Patrice Courvalin, M.D., Pasteur Institute, France; prepared according to Trieu-Cuot et. al, Mol. Gen. Genet. 198(2), 348 (1985)), pBluescript::AAC(6′)-Ie/APH(2″)-Ia (provided by Prof. Dr. Sergei Vakulenko, M.D., University of Notre Dame, Ind., USA; prepared according to S. B. Vakulenko et. al., J. Biol. Chem. 287 (52), 43262 (2012)), pBlue_lpp_aacC3_rrnC and pSET152 (Cat. No. PVT3395, Life Science Market; prepared according to Bierman et al., Gene 116 (1), 43 (1992)) plasmids, encoding APH(3′)-Ia (SEQ ID NO:2), APH(3′)-IIIa (SEQ ID NO:3), AAC(6′)Ie-APH(2″)-Ia (SEQ ID NO:4), AAC(3)-III (SEQ ID NO:1), and AAC(3)-IV (SEQ ID NO:5) respectively, were individually incubated in a vial of competent cells for 15 min on ice. The cells were subsequently heated to 42° C. for 90 s, and cooled on ice for 1 min. After addition of 900 μL LB, the cells were incubated for 1 h at 37° C. and 200 rpm. Cells were plated on LB-agar supplemented with 50 μg/mL KanaA and incubated for 18 h at 37° C. The next day, a single colony was inoculated in 5 mL LB supplemented with 50 μg/mL and grown for 18 h at 37° C. and 200 rpm. A 200 μL sample of each culture was diluted with 200 μL of 40% v/v glycerol in water, and stored at −80° C. The plasmid was purified from the remaining culture using the Plasmid Miniprep kit. Plasmid DNA was investigated by Eurofins Genomics (Germany) to confirm the identity of the aminoglycoside resistance genes.
as §1, §2, §3, §4, §5, §6
(§8) MIC determination. After 18 h of growth, 200 μL was transferred to a 96-well F-bottom plate. The optical density was determined by a plate reader at 600 nm, with 10 s shaking before reading. Triplicate measurements were averaged, and a growth curve was plotted in Microsoft Excel. […]

E. coli (APH(3′)Ia) = test: MIC 50, broth micro-dilution, E. coli expressing APH(3′)Ia; type: cell-based, Escherichia coli; settings: Escherichia coli, ATCC25922, ATCC25922 harboring plasmid encoding APH(3′)Ia
Method: as §7, §1, §2, §3, §4, §5, §6, §8

[1] = test system: E. coli (AAC(6′)Ie-APH(2″)Ia); test: MIC 50, broth micro-dilution, E. coli expressing AAC(6′)Ie-APH(2″)Ia; type: cell-based, Escherichia coli; settings: Escherichia coli, ATCC25922, ATCC25922 harboring plasmid encoding AAC(6′)Ie-APH(2″)Ia
Method: as §7, §1, §2, §3, §4, §5, §6, §8

E. coli (AAC(3)III) = test: MIC 50, broth micro-dilution, E. coli expressing AAC(3)III; type: cell-based, Escherichia coli; settings: Escherichia coli, ATCC25922, ATCC25922 harboring plasmid encoding AAC(3)III
From the text: Cloning resistant enzymes. An Escherichia coli codon optimized gene encoding AAC(3)-III (GenBank acc.nr. X55652.1; SEQ ID NO:1), including a promoter and terminator sequence, was synthesized by Integrated DNA Technologies, Belgium. The synthesized gene and pBluescript II KS(+) plasmid were digested using the restriction enzymes SacI and SalI, and purified from a 1% TBE-agarose gel using the illustra Gel Band purification kit. The purified linear plasmid and T4 DNA ligase were used to ligate aac(3)-III under control of the constitutive lipoprotein Ipp promoter and ribosomal RNA rrnC terminator, resulting in pBlue_Ipp_aacC3_rrnC.
as §7, §1, §2, §3, §4, §5
Inoculum preparation. Microorganisms used were all revived from 20% glycerol (40% v/v glycerol in water was diluted with MH2) storage at −80° C. by inoculating them in 5 mL MH2. inoculums of E. coli containing a plasmid were selected for by adding 50 μg/mL KanaA.

E. coli (AAC(3)IV) = test: MIC 50, broth micro-dilution, E. coli expressing AAC(3)IV; type: cell-based, Escherichia coli; settings: Escherichia coli, ATCC25922, ATCC25922 harboring plasmid encoding AAC(3)IV
Method: as §7, §1, §2, §3, §4, §5, §6, §8

SMILES: N=C(NC[C@H]1CCCNC1)NC1[C@@H](O)C(OC2[C@@H](F)[C@H](O[C@H]3OC(CN)[C@@H](O)CC3N)C(N)C[C@H]2NC(=O)[C@@H](O)CCN)O[C@H](CO)[C@H]1O (stereo partly drawn) [ABX5044, Tobra-AHB-F-Gua (S) piperidin-3-yl methyl]
- MIC50 (E. coli ATCC25922 strain): 0.5 µM (≈ 0.355 µg/mL)
- MIC50 (E. coli (APH(3′)IIIa)): 0.5 µM (≈ 0.355 µg/mL)
- MIC50 (E. coli (APH(3′)Ia)): 0.5 to 1 µM (≈ 0.355 to 0.71 µg/mL)
- MIC50 [1]: 0.5 µM (≈ 0.355 µg/mL)
- MIC50 (E. coli (AAC(3)III)): 0.5 µM (≈ 0.355 µg/mL)
- MIC50 (E. coli (AAC(3)IV)): 2 µM (≈ 1.42 µg/mL)

Source: patent US20220127297A1, “Novel Antibacterial 3"-Derivatives Of 4,6-Disubstituted 2,5-Dideoxystreptamine Aminoglycoside Antibiotics” (AGILeBiotics B.V., priority 2018, published 2022)
